Measurements taken from patent US9326506B2, “Preparation method, agricultural composition and applications of natural brassinolide analogs” (CHENGDU NEWSUN CROPSCIENCE CO., LTD, priority 2012, dated 2016).

Tested on: rice
Assay: Low temperature assay on rice seedlings
Assay type: in vivo
Experimental: According to a low temperature assay, we measured parameters including plant height, number of leaf, area of leaf, number of tiller, weight of root at low temperature to completely determine effects of the natural brassinolide analogues on the resistance to low temperature of a plant.
The natural brassinolide analogues, BR1, BR2, BR3, BR4, BR5 and BR6, used herein, were those prepared by the method of Example 1. Respectively the analogues were dissolved into 95% (V/V) ethanol solution, and then diluted with pure water to 1 mg/L, 0.1 mg/L, 0.01 mg/L, 0.001 mg/L and 0.0001 mg/L. In addition, pure water was used as a control.
After rice seeds were disinfected by using 5% sodium hypochlorite solution treatment, they were rinsed with distilled water until their pH>7, placed into a petri dish in a dark incubator, and cultured by using water at 30° C.±2° C. for 9 days. Then respectively the nine-day-old etiolated seedlings of rice were immersed in the above solutions containing different concentrations of the natural brassinolide analogues or pure water, and cultured at the temperature of 1° C., 2° C., 3° C., 4° C. and 5° C. for 24 hr. The parameters including plant height, area of leaf and weight of root after 3, 6, 9 and 12 days and number of leaf and number of tiller after 12 days were measured.

CC(C)(O)CC[C@@H](O)[C@](C)(O)[C@H]1CC[C@@]2(O)[C@@H]3CC(=O)[C@@H]4C[C@@H](O)[C@@H](O)C[C@]4(C)[C@H]3CC[C@]12C [BR6]
Area of leaf (0.0001 mg/l, 1 °C, 3 days): 10 cm^2
Height (0.0001 mg/l, 1 °C, 3 days): 7.1 cm
Weight of root (0.0001 mg/l, 1 °C, 3 days): 2.8 g
Area of leaf (0.0001 mg/l, 1 °C, 6 days): 11.2 cm^2
Height (0.0001 mg/l, 1 °C, 6 days): 7.2 cm
Weight of root (0.0001 mg/l, 1 °C, 6 days): 3.1 g
Area of leaf (0.0001 mg/l, 1 °C, 9 days): 12.4 cm^2
Height (0.0001 mg/l, 1 °C, 9 days): 7.4 cm
Weight of root (0.0001 mg/l, 1 °C, 9 days): 3.5 g
Area of leaf (0.0001 mg/l, 1 °C, 12 days): 13 cm^2
Height (0.0001 mg/l, 1 °C, 12 days): 7.4 cm
Number of leaf (0.0001 mg/l, 1 °C, 12 days): 3
Number of tiller (0.0001 mg/l, 1 °C, 12 days): 3
Weight of root (0.0001 mg/l, 1 °C, 12 days): 3.9 g
Area of leaf (0.0001 mg/l, 2 °C, 3 days): 10.2 cm^2
Height (0.0001 mg/l, 2 °C, 3 days): 7.1 cm
Weight of root (0.0001 mg/l, 2 °C, 3 days): 2.8 g
Area of leaf (0.0001 mg/l, 2 °C, 6 days): 11.7 cm^2
Height (0.0001 mg/l, 2 °C, 6 days): 7.2 cm
Weight of root (0.0001 mg/l, 2 °C, 6 days): 3.0 g
Area of leaf (0.0001 mg/l, 2 °C, 9 days): 12.6 cm^2
Height (0.0001 mg/l, 2 °C, 9 days): 7.3 cm
Weight of root (0.0001 mg/l, 2 °C, 9 days): 3.2 g
Area of leaf (0.0001 mg/l, 2 °C, 12 days): 13 cm^2
Height (0.0001 mg/l, 2 °C, 12 days): 7.5 cm
Number of leaf (0.0001 mg/l, 2 °C, 12 days): 3
Number of tiller (0.0001 mg/l, 2 °C, 12 days): 3
Weight of root (0.0001 mg/l, 2 °C, 12 days): 3.9 g
Area of leaf (0.0001 mg/l, 3 °C, 3 days): 10.4 cm^2
Height (0.0001 mg/l, 3 °C, 3 days): 7.1 cm
Weight of root (0.0001 mg/l, 3 °C, 3 days): 2.5 g
Area of leaf (0.0001 mg/l, 3 °C, 6 days): 12 cm^2
Height (0.0001 mg/l, 3 °C, 6 days): 7.2 cm
Weight of root (0.0001 mg/l, 3 °C, 6 days): 2.6 g
Area of leaf (0.0001 mg/l, 3 °C, 9 days): 12.6 cm^2
Height (0.0001 mg/l, 3 °C, 9 days): 7.5 cm
Weight of root (0.0001 mg/l, 3 °C, 9 days): 2.9 g
Area of leaf (0.0001 mg/l, 3 °C, 12 days): 13.2 cm^2
Height (0.0001 mg/l, 3 °C, 12 days): 7.6 cm
Number of leaf (0.0001 mg/l, 3 °C, 12 days): 3
Number of tiller (0.0001 mg/l, 3 °C, 12 days): 2
Weight of root (0.0001 mg/l, 3 °C, 12 days): 2.9 g
Area of leaf (0.0001 mg/l, 4 °C, 3 days): 10.6 cm^2
Height (0.0001 mg/l, 4 °C, 3 days): 7.1 cm
Weight of root (0.0001 mg/l, 4 °C, 3 days): 2.5 g
Area of leaf (0.0001 mg/l, 4 °C, 6 days): 12.2 cm^2
Height (0.0001 mg/l, 4 °C, 6 days): 7.3 cm
Weight of root (0.0001 mg/l, 4 °C, 6 days): 2.6 g
Area of leaf (0.0001 mg/l, 4 °C, 9 days): 13 cm^2
Height (0.0001 mg/l, 4 °C, 9 days): 7.5 cm
Weight of root (0.0001 mg/l, 4 °C, 9 days): 2.8 g
Area of leaf (0.0001 mg/l, 4 °C, 12 days): 13.4 cm^2
Height (0.0001 mg/l, 4 °C, 12 days): 7.7 cm
Number of leaf (0.0001 mg/l, 4 °C, 12 days): 3
Number of tiller (0.0001 mg/l, 4 °C, 12 days): 2
Weight of root (0.0001 mg/l, 4 °C, 12 days): 2.9 g
Area of leaf (0.0001 mg/l, 5 °C, 3 days): 10.6 cm^2
Height (0.0001 mg/l, 5 °C, 3 days): 7.2 cm
Weight of root (0.0001 mg/l, 5 °C, 3 days): 2.6 g
Area of leaf (0.0001 mg/l, 5 °C, 6 days): 12.8 cm^2
Height (0.0001 mg/l, 5 °C, 6 days): 7.5 cm
Weight of root (0.0001 mg/l, 5 °C, 6 days): 2.7 g
Area of leaf (0.0001 mg/l, 5 °C, 9 days): 13.6 cm^2
Height (0.0001 mg/l, 5 °C, 9 days): 7.5 cm
Weight of root (0.0001 mg/l, 5 °C, 9 days): 2.9 g
Area of leaf (0.0001 mg/l, 5 °C, 12 days): 14 cm^2
Height (0.0001 mg/l, 5 °C, 12 days): 7.8 cm
Number of leaf (0.0001 mg/l, 5 °C, 12 days): 3
Number of tiller (0.0001 mg/l, 5 °C, 12 days): 2
Weight of root (0.0001 mg/l, 5 °C, 12 days): 3.0 g
Area of leaf (0.001 mg/l, 1 °C, 3 days): 10 cm^2
Height (0.001 mg/l, 1 °C, 3 days): 6.9 cm
Weight of root (0.001 mg/l, 1 °C, 3 days): 2.8 g
Area of leaf (0.001 mg/l, 1 °C, 6 days): 11.3 cm^2
Height (0.001 mg/l, 1 °C, 6 days): 7.1 cm
Weight of root (0.001 mg/l, 1 °C, 6 days): 3.1 g
Area of leaf (0.001 mg/l, 1 °C, 9 days): 12.6 cm^2
Height (0.001 mg/l, 1 °C, 9 days): 7.3 cm
Weight of root (0.001 mg/l, 1 °C, 9 days): 3.4 g
Area of leaf (0.001 mg/l, 1 °C, 12 days): 13 cm^2
Height (0.001 mg/l, 1 °C, 12 days): 7.3 cm
Number of leaf (0.001 mg/l, 1 °C, 12 days): 3
Number of tiller (0.001 mg/l, 1 °C, 12 days): 3
Weight of root (0.001 mg/l, 1 °C, 12 days): 3.9 g
Area of leaf (0.001 mg/l, 2 °C, 3 days): 10.3 cm^2
Height (0.001 mg/l, 2 °C, 3 days): 6.9 cm
Weight of root (0.001 mg/l, 2 °C, 3 days): 2.8 g
